Assay results from patent US20250049922A1, “PHARMACEUTICAL COMPOSITION COMPRISING P-BORONOPHENYLALANINE” (priority 2021, published 2025).

Test: Solubilization of BPA in aqueous solutions, visual inspection of dissolution
Format: physicochemical
Conditions: RT, after 2 hours
Procedure: BPA (L-p-boronophenylalanine, Katchem, Praha, Czech Republic) was weighed to a set of test tubes, 15 mg each (72 μmol). At room temperature (RT), 0.5 ml each of various aqueous solutions as listed below, were added into parallel test tubes and mixed vigorously. After 2 hours, the results of visual inspection of BPA dissolution and pH were as follows: […]

visual inspection of BPA dissolution (15 mg BPA in 0.5 ml 0.12 M L-histidine (neutral pH)): no dissolution | visual inspection of BPA dissolution (15 mg BPA in 0.5 ml 0.5 M L-arginine (pH over 11)): partial dissolution | visual inspection of BPA dissolution (15 mg BPA in 0.5 ml 0.5 M L-serine (neutral pH)): no dissolution | visual inspection of BPA dissolution (15 mg BPA in 0.5 ml 0.5 M NaOH): complete dissolution | visual inspection of BPA dissolution (15 mg BPA in 0.5 ml 0.5 M Tris (Trizma base, pH over 10)): complete dissolution | visual inspection of BPA dissolution (15 mg BPA in 0.5 ml 0.5 M Tris-HCl (pH 8)): partial dissolution | visual inspection of BPA dissolution (15 mg BPA in 0.5 ml 0.5 M propylene glycol): no dissolution | visual inspection of BPA dissolution (15 mg BPA in 0.5 ml 0.5 M sodium-potassium tartrate (neutral pH)): partial dissolution | visual inspection of BPA dissolution (15 mg BPA in 0.5 ml 96% ethanol (v/v)): no dissolution | visual inspection of BPA dissolution (15 mg BPA in 0.5 ml deionized water): no dissolution | visual inspection of BPA dissolution (15 mg BPA, 0.25 ml 0.5 M NaOH followed by 0.5 ml 0.5 M L-serine): complete dissolution
Structure (SMILES): N[C@@H](Cc1ccc(B(O)O)cc1)C(=O)O [BPA, L-p-boronophenylalanine]
